Tests used:
[1] = test system: Leishmania amazonensis; assay: Antileishmanial activity against promastigotes of Leishmania amazonensis MPRO/BR/1972/M1841-LV-79 after 72 hrs by MTT assay; format: functional, organism-based; settings: MPRO/BR/1972/M1841-LV-79, 72 h
[2] = Selectivity index, ratio of CC50 for Swiss albino mouse peritoneal macrophages to IC50 for promastigotes of Leishmania amazonensis MPRO/BR/1972/M1841-LV-79; format: functional
[3] = Cytotoxicity against Swiss albino mouse peritoneal macrophages after 24 hrs by MTT assay; format: cell-based, Peritoneal macrophage cell
[4] = test system: Leishmania amazonensis; assay: Ratio of pentamidine IC50 to compound IC50 for Leishmania amazonensis MPRO/BR/1972/M1841-LV-79; format: functional

SMILES: N=C(N)c1ccc(OCCCCCOc2ccc(C(=N)N)cc2)cc1 [PENTAMIDINE]
- IC50 [1]: 6.7 µM
- Ratio CC50/IC50 [2]: 5.3
- CC50 at 24 h [3]: 35.7 µM

SMILES: O=C(/C=C/c1ccccc1)c1ccc(O)cc1O [2',4'-DIHYDROXYCHALCONE]
- IC50 [1]: 0.4 µM
- Ratio CC50/IC50 [2]: 1041.7
- Ratio IC50 [4]: 16
- CC50 at 24 h [3]: 417 µM

Reference: ChEMBL document CHEMBL3603786, “The 2',4'-dihydroxychalcone could be explored to develop new inhibitors against the glycerol-3-phosphate dehydrogenase from Leishmania species” (Bioorg Med Chem Lett, 2015)
